Data published in patent US6426355B1, “Heterocyclic carboxamide-containing thiourea inhibitors of herpes viruses containing phenylenediamine group” (American Home Products, priority 1998, dated 2002).
In brackets after ≈: the same amount, converted by molar mass.

How the values were obtained:
[1] = test system: VZV strain Ellen; assay: VZV Antiviral (ELISA) assay; type: cell-based; conditions: for IC50: Human alphaherpesvirus 3, VZV strain Ellen in HFF cells, read-out: IC50 (ug/ml) VZV; for IC50 (ug/ml) VZV / % inhibition 10 ug/ml VZV: VZV strain Ellen in HFF cells; for % inhibition 10 ug/ml VZV: at 10 ug/ml; for inhibition at 10 µg/mL: Human alphaherpesvirus 3, read-out: % inhibition 10 ug/ml VZV, at 10 ug/ml, VZV strain Ellen in HFF cells
How it was run: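 First, fibroblasts are infected at multiplicity below 0.1 and kept overnight. The harvested cell mixture then goes onto compound-containing wells for three days at 37° C. Finally, cells are fixed and viral gpII is measured by fluorogenic ELISA.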

[2] = test system: HSV-1; assay: HSV Antiviral (ELISA) assay; type: cell-based; conditions: for IC50: Human alphaherpesvirus 1, HSV-1 in Vero cells, read-out: IC50 (ug/ml) HSV; for IC50 (ug/ml) HSV: HSV-1 in Vero cells
How it was run: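 Replication measured as glycoprotein D signal in fixed cells: anti-gD antibody plus β-galactosidase-linked secondary, fluorogenic substrate read at 365/450 nm. Vero cells (2% FBS DMEM) received compound 30 min pre-infection, HSV-1 MOI 0.006, ~24 h incubation; IC50 relative to no-compound fluorescence.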

[3] = test system: HCMV recombinant mutant virus (RV145); assay: HCMV microtiter plate assay (beta-glucuronidase reporter); type: cell-based, Human Cytomegalovirus; conditions: for IC50: Human betaherpesvirus 5, Fibroblast, read-out: IC50 (ug/ml) HCMV; for IC50 (ug/ml) HCMV: HCMV in human foreskin fibroblasts
How it was run: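 Replication was read out as virus-encoded β-glucuronidase activity, measured with a chromogenic or fluorogenic glucuronide substrate in cell lysates at 96 h post-infection. Infection of human foreskin fibroblasts with RV145 took place with compound present. IC50 was derived from a range of inhibitor amounts.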

Row | Compound | IC50 [1] | IC50 [2] | IC50 [3] | IC50 (ug/ml) VZV [1] | % inhibition 10 ug/ml VZV [1] | IC50 (ug/ml) HSV [2] | IC50 (ug/ml) HCMV [3] | inhibition at 10 µg/mL [1]
1 | CCCCc1nc(C(=O)Nc2ccc(NC(=S)Nc3ccc(Cl)c(Cl)c3)cc2)cs1 [Example 1134, 2-Butyl-thiazole-4-carboxylic acid {4-[3-(3,4-dichloro-phenyl)-thioureido]-phenyl}-amide] | 1.6 µg/mL (≈ 3.34 µM) | 2.4 µg/mL (≈ 5.01 µM) | 1 µg/mL (≈ 2.09 µM) | – | – | – | – | –
2 | O=C(Nc1ccc(NC(=S)Nc2cccc(I)c2)cc1)c1csnn1 [Example 508] | – | – | – | >10 µg/mL | 7% | >10 µg/mL | 0.013 µg/mL (≈ 0.027 µM) | –
3 | COc1cccc(CCNC(=S)Nc2ccc(NC(=O)c3csnn3)cc2)c1 [Example 637] | – | – | – | >10 µg/mL | – | >10 µg/mL | 0.014 µg/mL (≈ 0.0339 µM) | –
4 | CN(C)CCSCC(=O)Nc1ccc(NC(=S)Nc2ccc(NC(=O)c3ccco3)cc2)cc1Cl [Example 396] | – | – | – | >10 µg/mL | 26% | >10 µg/mL | 0.7 µg/mL (≈ 1.32 µM) | –
5 | COc1cc(C)c(Cl)cc1NC(=S)Nc1ccc(NC(=O)c2ccccn2)cc1 [Example 352] | – | – | – | >10 µg/mL | 51% | 3 µg/mL (≈ 7.03 µM) | 0.6 µg/mL (≈ 1.41 µM) | –
6 | O=C(Nc1ccc(NC(=S)Nc2cc(Cl)c(Cl)c(Cl)c2)cc1)c1csnn1 [Example 989, [1,2,3]Thiadiazole-4-carboxylic acid {4-[3-(3,4,5-trichloro-phenyl)-thioureido]-phenyl}-amide] | > 10 µg/mL | > 10 µg/mL | 0.016 µg/mL (≈ 0.0349 µM) | – | – | – | – | 21%
7 | Cc1ccc(CCNC(=S)Nc2ccc(NC(=O)c3csnn3)cc2)cc1 [Example 638] | – | – | – | >10 µg/mL | – | >10 µg/mL | 0.01 µg/mL (≈ 0.0252 µM) | –
8 | CCCCc1nc(C(=O)Nc2ccc(NC(=S)Nc3cc(Cl)cc(Cl)c3)cc2)cs1 [Example 1136, 2-Butyl-thiazole-4-carboxylic acid {4-[3-(3,5-dichloro-phenyl)-thioureido]-phenyl}-amide] | 5 µg/mL (≈ 10.4 µM) | 2.9 µg/mL (≈ 6.05 µM) | 1.6 µg/mL (≈ 3.34 µM) | – | – | – | – | –
9 | CCN(CC)CC(=O)Nc1ccc(NC(=S)Nc2ccc(NC(=O)c3ccco3)cc2)cc1Cl [Example 413] | – | – | – | 5 µg/mL (≈ 10 µM) | 103% | 5 µg/mL (≈ 10 µM) | 0.081 µg/mL (≈ 0.162 µM) | –
10 | COc1cc(OC)c(NC(=S)Nc2ccc(NC(=O)c3cc4ccccc4o3)cc2)cc1Cl [Example 154] | – | – | – | >10 µg/mL | 23% | 4 µg/mL (≈ 8.3 µM) | 10 µg/mL (≈ 20.7 µM) | –
11 | O=C(Nc1ccc(NC(=S)Nc2cc(N3CCCC3)cc(C(F)(F)F)c2)cc1)c1csnn1 [Example 560] | – | – | – | >10 µg/mL | – | >10 µg/mL | 0.008 µg/mL (≈ 0.0162 µM) | –
12 | O=C(Nc1ccc(NC(=S)NCCc2cccc(F)c2)cc1)c1csnn1 [Example 554] | – | – | – | 1.5 µg/mL (≈ 3.74 µM) | – | >10 µg/mL | 0.01 µg/mL (≈ 0.0249 µM) | –
13 | CN(C)c1ccc(NC(=S)Nc2ccc(NC(=O)c3ccco3)cc2)cc1Cl [Example 330] | – | – | – | >10 µg/mL | 29% | >10 µg/mL | 0.15 µg/mL (≈ 0.362 µM) | –
14 | COC(=O)c1cc(NC(=S)Nc2ccc(NC(=O)c3ccco3)cc2)cc(C(=O)OC)c1 [Example 469] | – | – | – | >10 µg/mL | 54% | >10 µg/mL | 0.1 µg/mL (≈ 0.221 µM) | –
15 | O=C(Nc1ccc(NC(=S)Nc2ccc(Cl)c(C(F)(F)F)c2)cc1)c1csnn1 [Example 200] | – | – | – | >15 µg/mL | 55% | >10 µg/mL | 0.02 µg/mL (≈ 0.0437 µM) | –
16 | COc1c(Cl)cc(NC(=S)Nc2ccc(NC(=O)c3cccc(F)c3)cc2)cc1Cl [Example 922, N-{4-[3-(3,5-Dichloro-4-methoxy-phenyl)-thioureido]-phenyl}-3-fluoro-benzamide] | 7 µg/mL (≈ 15.1 µM) | > 10 µg/mL | 0.01 µg/mL (≈ 0.0215 µM) | – | – | – | – | 84%
17 | O=C(Nc1ccc(NC(=S)Nc2ccc(Br)c(Cl)c2)cc1)c1csnn1 [Example 970, [1,2,3]Thiadiazole-4-carboxylic acid {4-[3-(4-bromo-3-chloro-phenyl)-thioureido]-phenyl}-amide] | > 10 µg/mL | > 10 µg/mL | 0.06 µg/mL (≈ 0.128 µM) | – | – | – | – | 16%
18 | O=C(Nc1ccc(NC(=S)Nc2ccc(Cl)c(C(F)(F)F)c2)cc1)c1ccco1 [Example 378] | – | – | – | >10 µg/mL | 31% | >10 µg/mL | 0.033 µg/mL (≈ 0.075 µM) | –

Row | Compound | IC50 [1] | IC50 [2] | IC50 [3] | IC50 (ug/ml) VZV [1] | % inhibition 10 ug/ml VZV [1] | IC50 (ug/ml) HSV [2] | IC50 (ug/ml) HCMV [3] | inhibition at 10 µg/mL [1]
19 | COc1ccc(CCNC(=S)Nc2ccc(NC(=O)c3csnn3)cc2)cc1OC [Example 639] | – | – | – | >10 µg/mL | – | >10 µg/mL | 0.07 µg/mL (≈ 0.158 µM) | –
20 | Nc1nccc(-c2ccc(NC(=S)Nc3ccc(NC(=O)c4csnn4)cc3)cc2Cl)n1 [Example 501] | – | – | – | >10 µg/mL | 10% | >10 µg/mL | 0.032 µg/mL (≈ 0.0663 µM) | –
21 | Nc1c(Cl)cccc1NC(=S)Nc1ccc(NC(=O)c2ccco2)cc1 [Example 446] | – | – | – | >10 µg/mL | – | 10 µg/mL (≈ 25.8 µM) | 0.7 µg/mL (≈ 1.81 µM) | –
22 | O=C(Nc1ccc(NC(=S)NCc2cc(C(F)(F)F)cc(C(F)(F)F)c2)cc1)c1ccco1 [Example 547] | – | – | – | 10 µg/mL (≈ 20.5 µM) | – | >10 µg/mL | 0.006 µg/mL (≈ 0.0123 µM) | –
23 | O=C(Nc1ccc(NC(=S)Nc2cccc(S(=O)(=O)CCO)c2)cc1)c1ccccc1F [Example 1019, 2-Fluoro-N-(4-{3-[3-(2-hydroxy-ethanesulfonyl)-phenyl]-thioureido} -phenyl)-benzamide] | – | > 10 µg/mL | 1.5 µg/mL (≈ 3.17 µM) | – | – | – | – | 2%
24 | NC(=O)c1cccc(NC(=S)Nc2ccc(NC(=O)c3ccco3)cc2)c1 [Example 1004, Furan-2-carboxylic acid {4-[3-(3-carbamoyl-phenyl)-thioureido]-phenyl} -amide] | > 10 µg/mL | > 10 µg/mL | 0.5 µg/mL (≈ 1.31 µM) | – | – | – | – | 36%
25 | O=C(Nc1ccc(NC(=S)NCCOc2ccccc2)cc1)c1ccco1 [Example 626] | – | – | – | >10 µg/mL | – | 10 µg/mL (≈ 26.2 µM) | 0.07 µg/mL (≈ 0.184 µM) | –
26 | Cc1nc(C(=O)Nc2ccc(NC(=S)Nc3cc(Cl)cc(Cl)c3)cc2)cs1 [Example 1138, 2-Methyl-thiazole-4-carboxylic acid {4-[3-(3,5-dichloro-phenyl)-thioureido]-phenyl}-amide] | > 10 µg/mL | > 10 µg/mL | 0.65 µg/mL (≈ 1.49 µM) | – | – | – | – | –
27 | COc1cc(OC)c(NC(=S)Nc2ccc(NC(=O)c3ccnc4ccccc34)cc2)cc1Cl [Example 225] | – | – | – | >10 µg/mL | 30% | 1 µg/mL (≈ 2.03 µM) | >10 µg/mL | –
28 | O=C(Nc1ccc(NC(=S)Nc2cc(Cl)cc(Cl)c2)cc1)c1csc(-c2ccccc2)n1 [Example 1142, 2-Phenyl-thiazole-4-carboxylic acid {4-[3-(3,5-dichloro-phenyl)-thioureido]-phenyl}-amide] | > 10 µg/mL | > 10 µg/mL | 1.8 µg/mL (≈ 3.6 µM) | – | – | – | – | –
29 | Nc1cccc(NC(=S)Nc2ccc(NC(=O)c3ccco3)cc2)c1 [Example 430] | – | – | – | >10 µg/mL | – | >10 µg/mL | 0.4 µg/mL (≈ 1.14 µM) | –
30 | COc1cc(OC)c(NC(=S)Nc2ccc(NC(=O)c3ccccn3)cc2)cc1Cl [Example 224] | – | – | – | >10 µg/mL | 30% | 3.5 µg/mL (≈ 7.9 µM) | 0.8 µg/mL (≈ 1.81 µM) | –
31 | Nc1cc(Cl)cc(NC(=S)Nc2ccc(NC(=O)c3csnn3)cc2)c1 [Example 466] | – | – | – | >10 µg/mL | 93% | >10 µg/mL | 0.011 µg/mL (≈ 0.0272 µM) | –
32 | CC(NC(=S)Nc1ccc(NC(=O)c2csnn2)cc1)c1ccc(F)cc1 (stereo not drawn) [Example 565] | – | – | – | 0.22 µg/mL (≈ 0.548 µM) | – | >10 µg/mL | 0.01 µg/mL (≈ 0.0249 µM) | –
33 | O=C(Nc1ccc(NC(=S)Nc2cccc(O)c2)cc1)c1ccco1 [Example 474] | – | – | – | >10 µg/mL | 22% | >10 µg/mL | 1 µg/mL (≈ 2.83 µM) | –
34 | O=C(Nc1ccc(NC(=S)NNc2cccc(Cl)c2)cc1)c1ccco1 [Example 528] | – | – | – | 5 µg/mL (≈ 12.9 µM) | 107% | 3.2 µg/mL (≈ 8.27 µM) | 0.25 µg/mL (≈ 0.646 µM) | –
35 | COc1cccc(NC(=S)Nc2ccc(NC(=O)c3ccco3)cc2)c1 [Example 473] | – | – | – | >10 µg/mL | 40% | >10 µg/mL | 0.3 µg/mL (≈ 0.816 µM) | –
36 | CN(c1ccc(NC(=S)Nc2ccc(NC(=O)c3ccco3)cc2)cc1Cl)C1CCN(Cc2ccccc2)C1 (stereo not drawn) [Example 331] | – | – | – | 5 µg/mL (≈ 8.93 µM) | 98% | 1.8 µg/mL (≈ 3.21 µM) | 2 µg/mL (≈ 3.57 µM) | –
